Results as given in ChEMBL document CHEMBL3526022, “Which metabolites circulate?” (Drug Metab Dispos, 2013).
Where a name gives a salt, the structure may show the parent alone.

Columns and labels:
[1] = Clearance in iv dosed patient with renal impairment; type: ADME, organism-based; conditions: human, in vivo
clinical [2] = conditions: human, in vivo, po
[3] = Fraction unbound in healthy human at 10 mg, iv bolus dose and 25, 50 and 100 mg, po; type: ADME, organism-based; conditions: in vivo
Homo sapiens [4] = species on record: Homo sapiens; conditions: in vivo
Homo sapiens [5] = species on record: Homo sapiens; conditions: in vivo; remark: listed apart in the source
clinical [6] = conditions: human, in vivo, iv
[7] = Systemic clearance in human at 120 mg, po; type: ADME, organism-based; conditions: in vivo
[8] = Fraction unbound in human at 120 mg, po; type: ADME, organism-based; conditions: in vivo
Homo sapiens [9] = experiment: Unbound hepatobiliary clearance in human at 120 mg, po; type: ADME, organism-based; conditions: in vivo
[10] = Fraction unbound in human; type: ADME, organism-based; conditions: in vivo
[11] = Systemic clearance in human; type: ADME, organism-based; conditions: in vivo
[12] = Fraction unbound in healthy human treated with chlorpromazine at 10 mg, iv bolus dose and 25, 50 and 100 mg, po; type: ADME, organism-based; conditions: in vivo
Homo sapiens [13] = experiment: Unbound renal clearance in healthy human treated with chlorpromazine at 10 mg, iv bolus dose and 25, 50 and 100 mg, po; type: ADME, organism-based, Kidney; conditions: in vivo
[14] = Systemic clearance in healthy human treated with chlorpromazine at 10 mg, iv bolus dose and 25, 50 and 100 mg, po; type: ADME, organism-based; conditions: in vivo
Homo sapiens [15] = experiment: Unbound hepatobiliary clearance in healthy human treated with chlorpromazine at 10 mg, iv bolus dose and 25, 50 and 100 mg, po; type: ADME, organism-based; conditions: in vivo
Homo sapiens [16] = experiment: Unbound renal clearance in human at 4 mg, po twice daily for 8 days; type: ADME, organism-based, Kidney; conditions: in vivo, 192 h
Homo sapiens [17] = experiment: Unbound hepatobiliary clearance in human at 4 mg, po twice daily for 8 days; type: ADME, organism-based; conditions: in vivo, 192 h
[18] = Systemic clearance in human at 4 mg, po twice daily for 8 days; type: ADME, organism-based; conditions: in vivo
[19] = Systemic clearance in psychiatric patient treated with clozapine; type: ADME, organism-based; conditions: human, in vivo
[20] = Fraction unbound in psychiatric patient treated with clozapine; type: ADME, organism-based; conditions: human, in vivo
Homo sapiens [21] = species on record: Homo sapiens; experiment: Unbound hepatobiliary clearance in psychiatric patient treated with clozapine; type: ADME, organism-based; conditions: in vivo
Homo sapiens [22] = species on record: Homo sapiens; experiment: Unbound renal clearance in psychiatric patient treated with clozapine; type: ADME, organism-based, Kidney; conditions: in vivo
Homo sapiens [23] = species on record: Homo sapiens; experiment: Unbound renal clearance in human treated with propranolol; type: ADME, organism-based, Kidney; conditions: in vivo
Homo sapiens [24] = species on record: Homo sapiens; experiment: Unbound hepatobiliary clearance in human treated with propranolol; type: ADME, organism-based; conditions: in vivo
[25] = Fraction unbound in human treated with propranolol; type: ADME, organism-based; conditions: in vivo
[26] = Systemic clearance in human treated with propranolol; type: ADME, organism-based; conditions: in vivo
Homo sapiens [27] = species on record: Homo sapiens; experiment: Unbound renal clearance in human treated with darifenacin; type: ADME, organism-based, Kidney; conditions: in vivo
Homo sapiens [28] = species on record: Homo sapiens; experiment: Unbound hepatobiliary clearance in human treated with darifenacin; type: ADME, organism-based; conditions: in vivo
Homo sapiens [29] = experiment: Unbound hepatobiliary clearance in human treated with dilitiazem at 120 mg, po; type: ADME, organism-based; conditions: in vivo

## O[C@H](CNC[C@@H](O)[C@H]1CCc2cc(F)ccc2O1)[C@@H]1CCc2cc(F)ccc2O1 (relative stereo)
physchem
  pKa: 14

## COc1ccccc1Oc1c(NS(=O)(=O)c2ccc(C(C)(C)C)cc2)nc(-c2ncccn2)nc1OCCO [BOSENTAN]
physchem
  pKa: 8.36

## CNCC[C@H](Oc1cccc2ccccc12)c1cccs1 [DULOXETINE]
physchem
  pKa: 9.97

## COc1ccc(C(=O)Nc2ccccc2CCC2CCCCN2C)cc1 (stereo not given) [ENCAINIDE]
physchem
  pKa: 8.34

## CC(C)(C)c1ccc(C(O)CCCN2CCC(C(O)(c3ccccc3)c3ccccc3)CC2)cc1 (stereo not given) [TERFENADINE]
physchem
  pKa: 15

## CNCCC=C1c2ccccc2CCc2ccccc21 [NORTRIPTYLINE]
physchem
  pKa: 13.9

## OCCOCCN1CCN(C2=Nc3ccccc3Sc3ccccc32)CC1 [QUETIAPINE]
physchem
  pKa: 11.2

## O=C(c1ccc(F)cc1)C1CCN(CCn2c(=O)[nH]c3ccccc3c2=O)CC1 [KETANSERIN]
physchem
  pKa: 14.1

## Cc1onc(-c2ccccc2)c1-c1ccc(S(N)(=O)=O)cc1 [VALDECOXIB]
physchem
  pKa: 13.1

## O=C1CC2(CCCC2)CC(=O)N1CCCCN1CCN(c2ncccn2)CC1 [BUSPIRONE]
physchem
  pKa: 12.5
[1]
  clearance: 28 mL/min/kg

## CC(C)C(=O)Nc1ccc([N+](=O)[O-])c(C(F)(F)F)c1 [FLUTAMIDE]
physchem
  pKa: 12.9
Clinical [2]
  CL/F: > 600 mL/min/kg

## CN(C)CCCN1c2ccccc2Sc2ccc(Cl)cc21 [CHLORPROMAZINE]
[3]
  Fu: 0.0013
Homo sapiens [4]
  CL free: 14000 mL/min/kg
Homo sapiens [5]
  CL free: 1 mL/min/kg
Clinical [6]
  clearance: 18.3 mL/min/kg

## O=C(C1CCCCC1)N1CC(=O)N2CCc3ccccc3C2C1 (stereo not given) [PRAZIQUANTEL]
physchem
  pKa: 15

## COCc1c(C(C)C)nc(C(C)C)c(/C=C/[C@@H](O)C[C@@H](O)CC(=O)O)c1-c1ccc(F)cc1 [CERIVASTATIN]
physchem
  pKa: 14.4

## COc1ccc([C@@H]2Sc3ccccc3N(CCN(C)C)C(=O)[C@@H]2OC(C)=O)cc1 [DILTIAZEM]
[7]
  CL/F: 12 mL/min/kg
[8]
  fraction unbound: 0.25
Homo sapiens [9]
  CL free: 48 mL/min/kg

## CCc1ccc(CCOc2ccc(CC3SC(=O)NC3=O)cc2)nc1 (stereo not given) [PIOGLITAZONE]
physchem
  pKa: 13.7

## CC(C)NCC(O)COc1cccc2ccccc12 (stereo not given) [PROPRANOLOL]
[10]
  fraction unbound: 0.15
[11]
  clearance: 20 mL/min/kg

## CC(C)CCC(=O)CC1c2ccccc2C(=O)N1c1ccc2ccc(Cl)nc2n1 (stereo not given) [PAGOCLONE]
physchem
  pKa: 15

## CC(C)(O)c1ccccc1CC[C@@H](SCC1(CC(=O)O)CC1)c1cccc(/C=C/c2ccc3ccc(Cl)cc3n2)c1 [MONTELUKAST]
physchem
  pKa: 15.9

## CCc1cccc2cc(C(O)CNC(C)(C)C)oc12 (stereo not given) [BUFURALOL]
physchem
  pKa: 14.3

## CN1CCN(c2ccccc2/C=C2\SCCN(c3ccc(Cl)c(Cl)c3)C2=O)CC1 [ELZASONAN]
physchem
  pKa: 11.5

## CCOc1cc(CC(=O)N[C@@H](CC(C)C)c2ccccc2N2CCCCC2)ccc1C(=O)O [REPAGLINIDE]
physchem
  pKa: 14.8

## CNCC[C@@H](Oc1ccccc1C)c1ccccc1 [ATOMOXETINE]
physchem
  pKa: 10.3

## COc1ccnc(C[S+]([O-])c2nc3ccc(OC(F)F)cc3[nH]2)c1OC (stereo not given) [PANTOPRAZOLE]
physchem
  pKa: 7.69

## Clc1ccc2c(c1)CCc1cccnc1C2=C1CCNCC1 [DESLORATADINE]
physchem
  pKa: 9.27

## CCc1cc2c(cc1CC)CC(NC[C@H](O)c1ccc(O)c3[nH]c(=O)ccc13)C2 [INDACATEROL]
physchem
  pKa: 14.6

## CN(C)CCCN1c2ccc(O)cc2Sc2ccc(Cl)cc21 [7-HYDROXYCHLORPROMAZINE]
[12]
  fraction unbound: 0.015
Homo sapiens [13]
  CL free: 6 mL/min/kg
[14]
  clearance: 6.1 mL/min/kg
Homo sapiens [15]
  CL free: 400 mL/min/kg

## CN1C2CCCC1CC(NC(=O)c1nn(C)c3ccccc13)C2 (stereo not given) [GRANISETRON]
physchem
  pKa: 8.9

## Cc1c(O)cccc1C(=O)N[C@@H](CSc1ccccc1)[C@H](O)CN1C[C@H]2CCCC[C@H]2C[C@H]1C(=O)NC(C)(C)C
physchem
  pKa: 8.57

## Cc1ccc(O)c([C@H](CCN(C(C)C)C(C)C)c2ccccc2)c1 [TOLTERODINE]
Homo sapiens [16]
  CL free: 1 mL/min/kg
physchem
  pKa: 14.7
Homo sapiens [17]
  CL free: 1190 mL/min/kg
[18]
  CL/F: 44 mL/min/kg

## O=C1Nc2ccc(Cl)cc2[C@@](C#CC2CC2)(C(F)(F)F)O1 [EFAVIRENZ]
physchem
  pKa: 7.18

## COc1ccc2c3c1O[C@H]1[C@@H](O)C=C[C@H]4[C@@H](C2)N(C)CC[C@@]341 [CODEINE]
physchem
  pKa: 9.48

## CCOc1cc([C@@H](CS(C)(=O)=O)N2C(=O)c3cccc(NC(C)=O)c3C2=O)ccc1OC
physchem
  pKa: 9.8

## CCn1cc(C(=O)O)c(=O)c2ccc(C)nc21 [NALIDIXIC ACID]
physchem
  pKa: 13

## COc1ccc(-n2nc(C(N)=O)c3c2C(=O)N(c2ccc(N4CCCCC4=O)cc2)CC3)cc1 [APIXABAN]
physchem
  pKa: 8.56

## Fc1ccc([C@@H]2CCNC[C@H]2COc2ccc3c(c2)OCO3)cc1 [PAROXETINE]
physchem
  pKa: 10.3

## CN(CCOc1ccc(CC2SC(=O)NC2=O)cc1)c1ccccn1 (stereo not given) [ROSIGLITAZONE]
physchem
  pKa: 10.3

## COc1ccc2c(c1)[C@]13CCCC[C@@H]1[C@H](C2)N(C)CC3 [DEXTROMETHORPHAN]
physchem
  pKa: 10.1

## COc1ccc2[nH]c([S+]([O-])Cc3ncc(C)c(OC)c3C)nc2c1 (stereo not given) [OMEPRAZOLE]
physchem
  pKa: 13.2

## N#CC[C@H](C1CCCC1)n1cc(-c2ncnc3[nH]ccc23)cn1 [RUXOLITINIB]
physchem
  pKa: 14.9

## Clc1ccc2c(c1)C(N1CCNCC1)=Nc1ccccc1O2 [AMOXAPINE]
physchem
  pKa: 11.2

## CN(Cc1cc(Br)cc(Br)c1N)C1CCCCC1 [BROMHEXINE]
physchem
  pKa: 15.1

## COc1cccc(C2(O)CCCCC2CN(C)C)c1 (racemic) [TRAMADOL]
physchem
  pKa: 10

## COc1ccccc1OCC(O)CN1CCN(CC(=O)Nc2c(C)cccc2C)CC1 (stereo not given) [RANOLAZINE]
physchem
  pKa: 9.59

## CN1CC(=O)N2[C@H](c3ccc4c(c3)OCO4)c3[nH]c4ccccc4c3C[C@@H]2C1=O
physchem
  pKa: 9.87

## O=C(O[C@@H]1C[C@@H]2C[C@H]3C[C@H](C1)N2CC3=O)c1c[nH]c2ccccc12 [DOLASETRON]
physchem
  pKa: 14.6

## CCC(C)n1ncn(-c2ccc(N3CCN(c4ccc(OCC5COC(Cn6cncn6)(c6ccc(Cl)cc6Cl)O5)cc4)CC3)cc2)c1=O (stereo not given) [ITRACONAZOLE]
physchem
  pKa: 15

## O=C(NCC1CCCCN1)c1cc(OCC(F)(F)F)ccc1OCC(F)(F)F (stereo not given) [FLECAINIDE]
physchem
  pKa: 9.28

## C#Cc1cccc(Nc2ncnc3cc(OCCOC)c(OCCOC)cc23)c1 [ERLOTINIB]
physchem
  pKa: 13.9

## CCCSc1nc(N[C@@H]2C[C@H]2c2ccc(F)c(F)c2)c2nnn([C@@H]3C[C@H](OCCO)[C@@H](O)[C@H]3O)c2n1 [TICAGRELOR]
physchem
  pKa: 14.3

## NC(=O)C(c1ccccc1)(c1ccccc1)[C@@H]1CCN(CCc2ccc3c(c2)CCO3)C1 [DARIFENACIN]
[10]
  fraction unbound: 0.02
physchem
  pKa: 13.5

## Cc1ncc2n1-c1ccc(Cl)cc1C(c1ccccc1F)=NC2 [MIDAZOLAM]
physchem
  pKa: 13.6

## COc1ccc(CCN2CCC(Nc3nc4ccccc4n3Cc3ccc(F)cc3)CC2)cc1 [ASTEMIZOLE]
physchem
  pKa: 10.1

## Cc1c(OCC(F)(F)F)ccnc1C[S+]([O-])c1nc2ccccc2[nH]1 (stereo not given) [LANSOPRAZOLE]
physchem
  pKa: 11.2

## Clc1ccc2c(c1)N=C(N1CCNCC1)c1ccccc1N2 [N-DESMETHYLCLOZAPINE]
[19]
  clearance: 0.6 mL/min/kg
[20]
  fraction unbound: 0.097
Homo sapiens [21]
  CL free: 1.2 mL/min/kg
Homo sapiens [22]
  CL free: 5 mL/min/kg

## CC(NC(C)(C)C)C(=O)c1cccc(Cl)c1 (stereo not given) [BUPROPION]
physchem
  pKa: 15.4

## Cc1ccc(-c2cc(C(F)(F)F)nn2-c2ccc(S(N)(=O)=O)cc2)cc1 [CELECOXIB]
physchem
  pKa: 14.2

## CCc1nn(CCCN2CCN(c3cccc(Cl)c3)CC2)c(=O)n1CCOc1ccccc1 [NEFAZODONE]
physchem
  pKa: 13.8

## CC(C)NCC(O)COc1ccc(O)c2ccccc12 (stereo not given) [4-HYDROXYPROPRANOLOL SULFATE]
Homo sapiens [23]
  CL free: 5 mL/min/kg
Homo sapiens [24]
  CL free: 248 mL/min/kg
[25]
  fraction unbound: 0.26
[26]
  clearance: 66 mL/min/kg

## C#C[C@]1(O)CC[C@H]2[C@@H]3[C@H](C)CC4=C(CCC(=O)C4)[C@H]3CC[C@@]21C [TIBOLONE]
physchem
  pKa: 15

## C[C@H](NC(=O)C(C)(C)Oc1ccc(C(F)(F)F)cn1)[C@@H](Cc1ccc(Cl)cc1)c1cccc(C#N)c1 [TARANABANT]
physchem
  pKa: 15.1

## NC(=O)C(c1ccccc1)(c1ccccc1)[C@@H]1CCN(CCc2ccc3c(c2)C(O)CO3)C1 (stereo not given in full)
Homo sapiens [27]
  CL free: 47 mL/min/kg
Homo sapiens [28]
  CL free: 60 mL/min/kg

## CNCCN1C(=O)[C@H](OC(C)=O)[C@H](c2ccc(OC)cc2)Sc2ccccc21
Homo sapiens [29]
  CL free: 25 mL/min/kg
